Values joined by “and” are separate entries in the source; they are usually repeats but may differ in a detail not shown here. Identical values can stand only once.
Test system: HTH7 thyroid cancer cells
Assay: MTT cell death assay, chemotherapeutic with and without MADD siRNA knockdown
Format: cell-based
Conditions: siRNA 10 nM
Method: Cells are cultured and maintained at 37° C. in a humidified atmosphere containing 5% CO2 as described above. […] After 12-18 hours (Day 1), cells are transfected with Scramble or MADD siRNA at 10 nM concentration. The sequences of siRNAs (double stranded) used are:
On Day 4, when cells are properly adhered and retained their shape in 96-well plates, drugs are added. All drugs are diluted in complete media on the same day prior to the addition to the cells. In untreated cells, media is replaced with complete media. Two hundred μl volume of media (with or without drugs) is used for the drug treatment assay. Plates are incubated 24 hours, 48 hours and 72 hours at 37° C. in humidified CO2 incubator.
An MTT assay is performed to determine relative survival after drug treatment as described above. MTT (3-[4,5-Dimethylthiazol-2-yl]-2,5-diphenyltetrazolium bromide; Thiazolyl blue) is purchased from Sigma Aldrich (Cat number: M5655). […] Ten μl of MTT solution is added per well of 96-well plate. Plates are incubated for 2 hours at 37° C. in the humidified CO2 incubator. After 2 hours, media is aspirated using vacuum inside the biosafety hood. Purple colored crystals formed in viable cells are dissolved by adding 100 μl of Dimethyl sulfoxide (Thermo Fisher Scientific; Cat number D128-500) Plates are kept on shaker for 10 minutes for compete dissolution of crystals and absorbance is recorded at 595 nm using Bio-Rad iMark microplate reader. Data is analyzed in MICROSOFT EXCEL® software. Relative survival is calculated with respect to absorbance of control (untreated cells) to determine the effect of transfection as well as combination treatment.
Each data set takes into account any spontaneous cell death which is observed upon transfection with Scramble siRNA; the amount of spontaneous cell death from Scramble siRNA transfection (baseline) is subtracted from the amount of cell death observed in each siRNA transfection reaction to yield a Net Percent (Net %) cell death after accounting for Scrambled siRNA-induced cell death.

[1] = Cisplatin 1.25 μM, 72 hours post Cisplatin treatment
[2] = Cisplatin 5 μM, 24 hours post Cisplatin treatment

| Substance | Net % cell death after accounting for Scrambled siRNA [1] | Observed % Cell death [1] [%] | Net % cell death after accounting for Scrambled siRNA [2] | Observed % Cell death [2] [%] |
| --- | --- | --- | --- | --- |
| Scrambled siRNA: non-specific Scramble siRNA, negative control; SEQ ID NO: 5, 5′-UUGCUAAGCGUCGGUCAAUTT-3′ (chemistry not given here) | 0 − 0 = 0% | 0 | 0 − 0 = 0% | 0 |
| MADD siRNA: siRNA targeting exon 13L of the MADD splice variant of the IG20 gene; SEQ ID NO: 4, 5′-GAUUGUCAUAGAUUCGCCGTT-3′ (chemistry not given here) | 54% and 54 − 0 = 54% | 54 | 6% and 6 − 0 = 6% | 6 |

— patent US11273172B2, “Synergistic combination of oligonucleotides and chemotherapeutic for treating cancer” (THE BOARD OF TRUSTEES OF THE UNIVERSITY OF ILLINOIS, priority 2017, dated 2022)
